Results: patent US20210332005A1, “CH-ACIDIC M[…] FOR THE PREPARATION OF AQUEOUS POLYMER DISPERSIONS” (EVONIK OPERATIONS GMBH, priority 2018, published 2021)

Experiment: Solubility of the product in water (stirred with water, aqueous phase analysed by HPLC)
Type: physicochemical
Conditions: for content of the product in the aqueous phase (solubility in water): HPLC; for water-solubility, overall rating in words: summary statement
Experimental: The solubility of the product in water was determined as follows:
The product was stirred with water for three days at room temperature and the composition of the aqueous phase obtained in this way was determined using HPLC. The aqueous phase contained 6.7 wt % of the product.
A further sample of the product was stirred with water for three hours at 80° C. and cooled back to room temperature. The composition of the aqueous phase obtained in this way was subsequently determined using HPLC. The aqueous phase contained more than 10 wt % of the product.
The product was stirred with water for two days at room temperature and the composition of the aqueous phase obtained in this way was determined using HPLC. The aqueous phase contained 6.2 wt % of the product.
A further sample of the product was stirred with water for one hour at 60° C. and cooled back to room temperature. The composition of the aqueous phase obtained in this way was subsequently determined using HPLC. The aqueous phase contained 8.1 wt % of the product.
The product was stirred with water for three days at room temperature and the composition of the aqueous phase obtained in this way was determined using HPLC.
A further sample of the product was stirred with water for three hours at 80° C. and cooled to room temperature. The composition of the aqueous phase obtained in this way was subsequently determined using HPLC.

[1] = stirred with water for three days at room temperature
[2] = stirred with water for three hours at 80° C. and cooled back to room temperature

## C=C(C)C(=O)NCCCCCCNC(=O)CC#N [Comparative Example 3, N-(2-cyanoethylamidohexyl)methacrylamide, reference compound]
[1]
  content of the product in the aqueous phase (solubility in water): virtually insoluble in water
[2]
  content of the product in the aqueous phase (solubility in water): virtually insoluble in water
  water-solubility, overall rating in words: very low water-solubility

## C=C(C)C(=O)NCCNC(=O)CC#N [Example 3, N-(2-cyanoethylamidoethyl)methacrylamide]
[1]
  content of the product in the aqueous phase (solubility in water): 6.7 wt %
[2]
  content of the product in the aqueous phase (solubility in water): more than 10 wt %
  water-solubility, overall rating in words: high water-solubility

## C=C(C)C(=O)NCCCCNC(=O)CC#N [Example 5, N-(2-cyanoethylamidobutyl)methacrylamide]
Stirred with water for one hour at 60° C. and cooled back to room temperature
  content of the product in the aqueous phase (solubility in water): 8.1 wt %
Stirred with water for two days at room temperature
  content of the product in the aqueous phase (solubility in water): 6.2 wt %
  water-solubility, overall rating in words: high water-solubility
